Results on 3 compounds are retold here after patent publication US20110268742A1, “PCTP MODULATORS IN THE TREATMENT OF ACNE, OF SEBORRHOEIC DERMATITIS OR OF HYPERSEBORRHOEA” (Galderma Research & Development, priority 2008, published 2011).

In assay [1] the test system is PCTP (phosphatidylcholine transfer protein) gene expression. In words: Expression of PCTP in Fuzzy rat epidermal split after 8 days of topical treatment, Affymetrix transcriptome analysis. Conditions: female Fuzzy rats, topical 1% once a day for 8 days, Affymetrix 1387058_at, control condition 143. The class given is in vivo. How it is done: Fuzzy Rat Epidermal Split Expression Data
The studies are carried out in female Fuzzy rats (Hsd: Fuzzy-fz) ten weeks old at the beginning of the study. The animals are treated at a dose of 1% (PPARg agonist rosiglitazone in solution in acetone) once a day for 8 days. Two hours after the final treatment, the animals are sacrificed by euthanasia and the skin on the back is removed. After incubation in dispase, the epidermis carrying the sebaceous glands is detached from the dermis (epidermal split). After grinding of the samples, the mRNA is prepared using Qiagen columns, in accordance with the supplier's instructions. The material thus prepared is subjected to large-scale transcriptome analysis on an Affymetrix platform. The data are subsequently standardized and, after statistical analysis, the results produced are expressed in arbitrary expression units (see below) accompanied, for each piece of data, by a statistical value for presence of the transcript (presence=1; absence=0).

Assay [2] shares this test system. In words: Expression of PCTP in rat sebaceous gland (epidermal split) after topical PPARgamma agonist, real-time PCR kinetics. The class given is in vivo. Conditions: for PCTP relative induction: topical 1% in acetone, female Fuzzy rats, standardized to 18S, versus carrier group; for PCTP expression in vivo at the level of the sebaceous glands following topical treatment: topical treatment with PPARγ ligand at 1%. An excerpt:
Number per batch: 40 (8 animals per group)
Treatment: Route of administration: topical
Compound/batch: PPARgamma agonists: • A: 5-{4-[2-(methylpyridin-2-ylamino)ethoxy]-benzyl}thiazolidine-2,4-dione • B: (2-methoxyethoxymethoxy)naphthalene-2-carboxylic acid [4′-(2,4-dioxothazolidin-5-ylmethyl)biphenyl-3-ylmethyl]methylamide or rosiglitazone • C: (S)-2-ethoxy-3-{4-[6-(3-heptyl-1-methyl-ureido)pyridin-2-yl]phenyl}propionic acid
Method of evaluation: The animals are weighed at the beginning and at the end of the study. Skin biopsies are taken (6 samples of skin excised per rat) in order to analyse the expression of the genes (RNA extraction, reverse transcriptase and real-time PCR). The samples are stored overnight at 4° C. before incubation in 1M sodium bromide (NaBr) for 2 hours at 37° C. After incubation, the samples are separated into epidermis or dermis. The epidermal samples are stored at […]. Under these conditions, the sebaceous glands are in the epidermal split. PCRs are carried out, beginning with the cDNAs originating from the epidermal splits controlling sebaceous glands from control rats or rats treated with a PPARγ agonist; the mRNA is extracted using a column and quantified. The quality of the mRNAs is measured and is represented by the 18S/28S ratio. The results are standardized with respect to 18S, expressed as relative induction versus untreated animals (carrier group). The statistical analysis is obtained using internal software based on a modified Monte Carlo statistical analysis.

For “(2-methoxyethoxymethoxy)naphthalene-2-carboxylic acid [4′-(2,4-dioxothazolidin-5-ylmethyl)biphenyl-3-ylmethyl]methylamide”, in assay [1], the “Expression after treatment with 1% rosiglitazone” value is recorded as 445 arbitrary expression units. Further, the PCTP relative induction in assay [2] (0 hours) came out at 1; in assay [2] (8 hours) it was 2.57; in assay [2] (24 hours), 2.79; in assay [2] (48 hours), 3.37; in assay [2] (96 hours), 1.15. Moreover, the “PCTP expression in vivo at the level of the sebaceous glands following topical treatment” value (“PCTP expression in vivo at the level” below) in assay [2] was “modulated”.

Consider `CN(CCOc1ccc(CC2SC(=O)NC2=O)cc1)c1ccccn1` (stereo not shown) [A, 5-{4-[2-(methylpyridin-2-ylamino)ethoxy]-benzyl}thiazolidine-2,4-dione], for which the PCTP relative induction in assay [2] (0 hours) is on record as 1; in assay [2] (8 hours), 7.06; in assay [2] (24 hours), 8.54; in assay [2] (48 hours) it was 6.70; in assay [2] (96 hours) it was 3.38. Besides, the “PCTP expression in vivo at the level” value in assay [2] was “modulated”.

For the compound `CCCCCCCNC(=O)N(C)c1cccc(-c2ccc(C[C@H](OCC)C(=O)O)cc2)n1` [C, (S)-2-ethoxy-3-{4-[6-(3-heptyl-1-methyl-ureido)pyridin-2-yl]phenyl}propionic acid], the PCTP relative induction in assay [2] (0 hours) is given as 1; in assay [2] (8 hours), 1.54; in assay [2] (24 hours), 3.69; in assay [2] (48 hours), 3.11; in assay [2] (96 hours), 1.38. Besides, in assay [2], the “PCTP expression in vivo at the level” value is on record as “modulated”.
